Data published in US20210087206A1, “MACROCYCLIC KINASE INHIBITORS AND THEIR USE” (TURNING POINT THERAPEUTICS, INC., priority 2017, published 2021).

Tests used:
Test in all cases: Cell proliferation assay (CellTiter-Glo)
Assay type in all cases: cell-based
KM12 (TPM3-TRKA) = conditions: Homo sapiens, anti-cell proliferation, 72 hours
How it was run: (§1)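 Cells seeded 24 h, then exposed to compounds for 72 h at 37° C., 5% CO2. Proliferation read by CellTiter-Glo luminescent ATP detection; IC50 from dose-response fits.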

KG-1 cell (OP2-FGFR1) = conditions: Homo sapiens, anti-cell proliferation, 72 hours
How it was run: as §1

BaF3 EML4-ALK = molecular target: T1, BaF3 EML4-ALK (Homo sapiens, UniProt Q9UM73); conditions: anti-cell proliferation, 72 hours
T1 construct: The EML4-ALK gene (variant 1) was synthesized at GenScript and cloned into pCDH-CMV-MCS-EF1-Puro plasmid (System Biosciences, Inc); fused on or other part: EML4 N-terminal part (variant 1: exons 1-13, with the coiled-coil that oligomerises the fusion) fused to the intracellular part of ALK, which contains the kinase domain; Q9HC35 (Echinoderm microtubule-associated protein-like 4)
How it was run: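 Ba/F3 cells were lentivirally transduced with EML4-ALK variant 1 and selected for puromycin resistance and IL-3-independent growth. Proliferation was measured by CellTiter-Glo ATP luminescence to give IC50.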

T1 sequence (Q9UM73 whole entry, stated change not applied, the tested form may be a part): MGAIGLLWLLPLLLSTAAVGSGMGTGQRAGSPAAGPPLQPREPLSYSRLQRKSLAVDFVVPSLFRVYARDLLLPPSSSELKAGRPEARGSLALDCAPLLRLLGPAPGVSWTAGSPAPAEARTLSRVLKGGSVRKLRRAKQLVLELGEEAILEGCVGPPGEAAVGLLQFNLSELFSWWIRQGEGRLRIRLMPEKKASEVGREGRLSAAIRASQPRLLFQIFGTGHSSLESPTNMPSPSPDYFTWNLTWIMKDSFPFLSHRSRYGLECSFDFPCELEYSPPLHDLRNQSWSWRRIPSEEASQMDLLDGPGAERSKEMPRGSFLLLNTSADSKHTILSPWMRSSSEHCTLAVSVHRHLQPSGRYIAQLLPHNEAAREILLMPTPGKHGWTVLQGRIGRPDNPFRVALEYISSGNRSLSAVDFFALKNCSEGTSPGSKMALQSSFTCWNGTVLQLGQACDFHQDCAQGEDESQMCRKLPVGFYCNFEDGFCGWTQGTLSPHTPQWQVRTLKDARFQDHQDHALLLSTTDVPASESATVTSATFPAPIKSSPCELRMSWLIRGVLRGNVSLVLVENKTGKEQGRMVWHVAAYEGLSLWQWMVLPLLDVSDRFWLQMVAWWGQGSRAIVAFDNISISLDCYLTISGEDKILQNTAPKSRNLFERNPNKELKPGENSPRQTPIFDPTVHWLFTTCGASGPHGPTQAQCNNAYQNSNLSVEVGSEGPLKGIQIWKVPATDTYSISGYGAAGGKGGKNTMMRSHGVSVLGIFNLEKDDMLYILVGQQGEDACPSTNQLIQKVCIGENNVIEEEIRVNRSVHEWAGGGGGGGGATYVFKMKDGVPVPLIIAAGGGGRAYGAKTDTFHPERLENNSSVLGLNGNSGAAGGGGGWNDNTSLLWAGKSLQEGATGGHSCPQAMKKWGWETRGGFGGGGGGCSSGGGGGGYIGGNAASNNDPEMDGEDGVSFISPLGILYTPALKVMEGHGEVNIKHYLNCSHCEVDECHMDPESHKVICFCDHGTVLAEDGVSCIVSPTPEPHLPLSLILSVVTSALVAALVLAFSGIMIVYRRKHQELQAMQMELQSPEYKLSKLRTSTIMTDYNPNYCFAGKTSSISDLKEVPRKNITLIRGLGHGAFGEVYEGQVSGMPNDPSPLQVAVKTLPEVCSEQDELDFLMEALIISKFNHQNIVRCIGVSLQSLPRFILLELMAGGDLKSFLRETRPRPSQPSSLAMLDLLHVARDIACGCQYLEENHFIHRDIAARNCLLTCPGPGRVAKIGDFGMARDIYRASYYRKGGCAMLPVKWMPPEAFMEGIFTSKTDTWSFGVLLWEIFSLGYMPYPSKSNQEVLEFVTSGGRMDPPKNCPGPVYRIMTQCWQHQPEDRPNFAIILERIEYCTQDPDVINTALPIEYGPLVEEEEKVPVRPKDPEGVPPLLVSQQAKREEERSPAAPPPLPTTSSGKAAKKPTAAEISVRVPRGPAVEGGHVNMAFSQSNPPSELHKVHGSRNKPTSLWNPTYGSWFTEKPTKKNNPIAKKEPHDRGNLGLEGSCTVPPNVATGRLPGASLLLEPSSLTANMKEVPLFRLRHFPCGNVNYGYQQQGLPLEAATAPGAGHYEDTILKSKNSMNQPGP

Compound: C[C@@H]1COc2cn3ncc4c3nc2N1Cc1cc(F)cnc1OCCC1(CCC1)NC4=O [Compound 96, (16′R)-12′-fluoro-16′-methyl-4′H,5′H,7′H,8′H,14′H,16′H,17′H-spiro[cyclobutane-1,6′-[9,18]-dioxa[1,2,5,10,15,20]hexaaza-[1,19](metheno)[1,4]oxazino-[4,3-e]pyrazolo[3,4-h]pyrido[2,3-b][1,5,7,11]oxatriazacyclotetra-decin]-4′-one]
- IC50 (KM12 (TPM3-TRKA)): < 0.0002 µM
- IC50 (KG-1 cell (OP2-FGFR1)): 0.5 µM
- IC50 (BaF3 EML4-ALK): 0.349 µM

Compound: C[C@H]1CNC(=O)c2cnn3cc4c(nc23)N(Cc2cc(F)ccc2O1)[C@@H](C)CCO4 [Compound 18, (5S,13S)-9-fluoro-5,13-dimethyl-4,5,14,15-tetrahydro-3H,7H-19,1-(metheno)[1,4]oxazepino[3,4-i]-pyrazolo[4,3-f][1,4,8,10]benzo-xatriaxacyclotridecin-16(13H)-one]
- IC50 (KM12 (TPM3-TRKA)): < 0.0002 µM
- IC50 (KG-1 cell (OP2-FGFR1)): > 10 µM
- IC50 (BaF3 EML4-ALK): > 10 µM

Compound: C[C@@H]1COc2cn3ncc4c3nc2N(Cc2cc(F)cnc2O[C@@H](C)CNC4=O)C1 [Compound 30, (4S,13S)-9-fluoro-4,13-dimethyl-4,5,14,15-tetrahydro-3H,7H-19,1-(metheno)[1,4]oxazepino[3,4-i]-pyrazolo[4,3-f]pyrido[3,2-l] [1,4,8,10]oxatriazacyclotridecin-16(13H)-one]
- IC50 (KM12 (TPM3-TRKA)): 0.042 µM
- IC50 (KG-1 cell (OP2-FGFR1)): 0.536 µM
- IC50 (BaF3 EML4-ALK): 7.38 µM

Compound: C[C@@H]1COc2cn3ncc4c3nc2N1Cc1cc(F)cnc1OCCC(C)(C)NC4=O [Compound 70, (16R)-12-fluoro-6,6,16-trimethyl-5,6,7,8,16,17-hexahydro-4H,14H-1,19-(metheno)[1,4]oxazino[4,3-e]pyrazolo[3,4-h]pyrido[2,3-b] [1,5,7,11]oxatriazacyclotetradecin-4-one]
- IC50 (KM12 (TPM3-TRKA)): < 0.0002 µM
- IC50 (KG-1 cell (OP2-FGFR1)): 0.0517 µM
- IC50 (BaF3 EML4-ALK): 0.0357 µM

Compound: C[C@@H]1COc2ncc(F)cc2CN2C[C@@H](O)COc3cn4ncc(c4nc32)C(=O)N1 [Compound 88, (4R,14R)-9-fluoro-4-hydroxy-14-methyl-4,5,14,15-tetrahydro-3H,7H-19,1-(metheno)[1,4]-oxazepino[3,4-i]pyrazolo[4,3-f]pyrido[3,2-l][1,4,8,10]oxatriaza-cyclotridecin-16(13H)-one]
- IC50 (KM12 (TPM3-TRKA)): 0.0031 µM
- IC50 (KG-1 cell (OP2-FGFR1)): 3 µM
- IC50 (BaF3 EML4-ALK): 5 µM

Compound: C[C@@H]1COc2ncc(F)cc2CN2c3nc4c(cnn4cc3OCC23CC(F)(F)C3)C(=O)N1 [Compound 63, (13′R)-3,3,8′-trifluoro-13′-methyl-3′H,6′H,12′H,13′H,14′H,15′H-spiro[cyclobutane-1,4′-[2,11]-dioxa[5,10,14,17,18,19]hexaaza-[18,1](metheno)[1,4]oxazino[3,4-i]pyrazolo[4,3-f]pyrido[3,2-l] [1,4,8,10]oxatriazacyclotridecin]-15′-one]
- IC50 (KM12 (TPM3-TRKA)): < 0.0002 µM
- IC50 (KG-1 cell (OP2-FGFR1)): 10 µM
- IC50 (BaF3 EML4-ALK): 0.576 µM

Compound: C[C@@H]1COc2cn3ncc4c3nc2N1Cc1cc(F)cnc1OCCCNC4=O [Compound 33, (16R)-12-fluoro-16-methyl-5,6,7,8,16,17-hexahydro-4H,14H-1,19-(metheno)[1,4]oxazino[4,3-e]pyrazolo[3,4-h]pyrido[2,3-b] [1,5,7,11]oxatriazacyclotetradecin-4-one]
- IC50 (KM12 (TPM3-TRKA)): < 0.0002 µM
- IC50 (KG-1 cell (OP2-FGFR1)): 0.0371 µM
- IC50 (BaF3 EML4-ALK): 0.0584 µM

Compound: C[C@@H]1COc2cn3ncc4c3nc2N1Cc1cc(F)cnc1OCC1(CCC1)CNC4=O [Compound 47, (16′R)-12′-fluoro-16′-methyl-4′H,5′H,6′H,8′H,14′H,16′H,17′H-spiro[cyclobutane-1,7′-[9,18]-dioxa[1,2,5,10,15,20]hexaaza-[1,19](metheno)[1,4]oxazino-[4,3-e]pyrazolo[3,4-h]pyrido-[2,3-b][1,5,7,11]oxatriazacyclo-tetradecin]-4′-one]
- IC50 (KM12 (TPM3-TRKA)): < 0.0002 µM
- IC50 (KG-1 cell (OP2-FGFR1)): 0.0242 µM
- IC50 (BaF3 EML4-ALK): 0.068 µM
